Measured values: paper PMC8655237 (Journal of Advanced Research, 2021)

Assays:
[1] = tested on: PC-3; assay: MTT antiproliferative assay; assay type: cell-based; conditions: Homo sapiens, PC-3, 24 h, read-out: IC50 (MTT)
[2] = tested on: MDA-MB-231; assay: NRU antiproliferative assay; assay type: cell-based; conditions: Homo sapiens, MDA-MB-231, 24 h, read-out: IC50 (NRU)
[3] = tested on: A431; assay: SRB antiproliferative assay; assay type: cell-based; conditions: Homo sapiens, A-431, 24 h, read-out: IC50 (SRB)
[4] = target: T1, Ornithine decarboxylase (ODC) (Homo sapiens, UniProt P11926); assay: ODC assay, cell-based; conditions: for IC50: IC50 ODC, cell based
T1 sequence (P11926 1-461): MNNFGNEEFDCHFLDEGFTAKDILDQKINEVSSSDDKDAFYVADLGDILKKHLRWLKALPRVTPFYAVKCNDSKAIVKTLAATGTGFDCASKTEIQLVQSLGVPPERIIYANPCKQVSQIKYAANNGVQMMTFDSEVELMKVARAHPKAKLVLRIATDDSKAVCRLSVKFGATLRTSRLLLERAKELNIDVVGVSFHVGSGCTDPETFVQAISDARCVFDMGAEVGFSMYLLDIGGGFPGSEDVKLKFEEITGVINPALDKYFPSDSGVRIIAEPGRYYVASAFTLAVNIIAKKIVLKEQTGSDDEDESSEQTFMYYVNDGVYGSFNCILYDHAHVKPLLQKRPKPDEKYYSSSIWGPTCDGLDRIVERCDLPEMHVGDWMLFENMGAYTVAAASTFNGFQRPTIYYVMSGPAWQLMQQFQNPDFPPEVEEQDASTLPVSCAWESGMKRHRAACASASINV

[5] = tested on: LOX-5 mRNA; assay: Real-time qPCR expression analysis; assay type: cell-based, human; conditions: GAPDH internal control
[6] = tested on: HYAL mRNA; assay: Real-time qPCR expression analysis; assay type: cell-based, human; conditions: GAPDH internal control
[7] = tested on: ODC mRNA; assay: Real-time qPCR expression analysis; assay type: cell-based, human; conditions: GAPDH internal control
[8] = tested on: FaDu; assay: Cell cycle analysis by flow cytometry; assay type: cell-based, human; conditions: 24 h
[9] = tested on: K562; assay: Cell cycle analysis by flow cytometry; assay type: cell-based, human; conditions: K562, 24 h
[10] = tested on: MDA-MB-231; assay: Cell cycle analysis by flow cytometry; assay type: cell-based, human; conditions: MDA-MB-231, 24 h
[11] = target: tubulin protein (Sus scrofa, UniProt P02550+P02554); assay: Tubulin polymerization assay; assay type: biochemical; conditions: 100 μM
Sequence of tubulin protein (P02550 whole entry): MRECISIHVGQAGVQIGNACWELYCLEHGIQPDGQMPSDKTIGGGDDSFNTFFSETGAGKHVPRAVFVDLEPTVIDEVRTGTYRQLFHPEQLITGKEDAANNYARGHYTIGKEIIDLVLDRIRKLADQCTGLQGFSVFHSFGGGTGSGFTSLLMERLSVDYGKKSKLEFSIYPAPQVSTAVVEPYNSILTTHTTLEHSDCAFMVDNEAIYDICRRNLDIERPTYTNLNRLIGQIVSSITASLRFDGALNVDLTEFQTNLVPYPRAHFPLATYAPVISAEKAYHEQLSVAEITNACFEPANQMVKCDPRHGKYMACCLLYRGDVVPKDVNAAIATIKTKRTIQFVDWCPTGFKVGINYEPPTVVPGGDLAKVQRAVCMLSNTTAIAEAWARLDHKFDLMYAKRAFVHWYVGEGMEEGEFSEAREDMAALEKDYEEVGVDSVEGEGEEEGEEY
Sequence of tubulin protein (P02554 whole entry): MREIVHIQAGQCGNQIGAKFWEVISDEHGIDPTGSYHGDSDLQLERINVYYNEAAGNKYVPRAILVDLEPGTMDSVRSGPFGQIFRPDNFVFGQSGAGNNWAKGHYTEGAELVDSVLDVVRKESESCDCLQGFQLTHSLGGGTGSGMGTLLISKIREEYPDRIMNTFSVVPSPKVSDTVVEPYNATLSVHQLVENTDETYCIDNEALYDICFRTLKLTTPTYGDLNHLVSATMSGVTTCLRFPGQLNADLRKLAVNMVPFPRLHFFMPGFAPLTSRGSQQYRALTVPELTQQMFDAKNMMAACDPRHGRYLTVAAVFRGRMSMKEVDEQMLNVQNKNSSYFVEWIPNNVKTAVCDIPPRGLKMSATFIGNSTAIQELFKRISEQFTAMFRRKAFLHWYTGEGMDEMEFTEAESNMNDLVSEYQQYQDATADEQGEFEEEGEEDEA

[12] = tested on: A431 cells; assay: Mitochondrial membrane potential; assay type: cell-based, human; conditions: for total of FITC mean (Rh123): A431, flow cytometry
[13] = tested on: AKT; assay: AKT quantification by ELISA in A431 cells; assay type: cell-based, human; conditions: A431, 100 µM, 24 h
[14] = tested on: mTOR; assay: mTOR quantification by ELISA in A431 cells; assay type: cell-based, human; conditions: A431, 100 µM, 24 h
[15] = tested on: human erythrocytes; assay: Ex vivo osmotic fragility test; conditions: 100 μM

Structure (SMILES): CC(C)[C@@H]1CC[C@@H](C)C[C@@H]1O [neomenthol, (+)-Neomenthol]
- IC50 [1]: 20.1 ± 0.82 µM
- IC50 [2]: 34.7 ± 9.96 µM
- IC50 [3]: 82.1 ± 1.97 µM
- percent inhibition of ODC ([4]; A549, PC-3, A431, and FaDu cell lines): below 50%
- IC50 ([4]; K562): 29.6 ± 2.54 µM
- IC50 ([4]; MDA-MB-231): 57.2 ± 2.84 µM
- LOX-5 mRNA expression level ([5]; A431, with respect to control): 1.25 fold change
- LOX-5 mRNA expression level ([5]; FaDu, with respect to control): 1.26 fold change
- LOX-5 mRNA expression level ([5]; K562, with respect to control): 1.10 fold change
- HYAL mRNA expression level ([6]; A431, with respect to control): 1.52 fold change
- HYAL mRNA expression level ([6]; FaDu, with respect to control): 1.06 fold change
- HYAL mRNA expression level ([6]; PC-3, with respect to control): 1.37 fold change
- ODC mRNA expression level ([7]; A431, with respect to control): 1.15 fold change
- ODC mRNA expression level ([7]; A549, with respect to control): 1.18 fold change
- ODC mRNA expression level ([7]; FaDu, with respect to control): 1.08 fold change
- ODC mRNA expression level ([7]; MDA-MB-231, with respect to control): 1.05 fold change
- ODC mRNA expression level ([7]; PC-3, with respect to control): 1.22 fold change
- cell cycle phase arrested [8]: G2/M phase
- cell cycle phase arrested [9]: arrest of the G0/G1 phase
- cell cycle phase arrested [10]: arrests the S-phase
- effect on tubulin polymerization [11]: inhibit the polymerization of α and β tubulin
- total of FITC mean (Rh123) ([12]; 10 µM): 3101 ± 1.41
- total of FITC mean (Rh123) ([12]; 100 µM): 2913 ± 1.41
- percent decrease of mitochondrial membrane potential concerning control ([12]; A431, highest concentration, 24 h, spectrofluorometer): 13.05 ± 2.6%
- AKT level (ng/mg of protein) [13]: 0.125 ± 0.004 ng/mg
- mTOR level (ng/mg of protein) [14]: 0.336 ± 0.108 ng/mg
- toxicity to erythrocytes (osmotic fragility) [15]: non-toxic to erythrocytes
